Data as given in patent US12540128B2, “Substituted pyridazinones as herbicides” (SYNGENTA CROP PROTECTION AG, priority 2019, dated 2026).

Key:
Format in all cases: in vivo
Details in all cases: 250 g/ha, after 13 days
[1] = tested on: Abutilon theophrasti (ABUTH); assay: B2 Post-Emergence Efficacy Test 2
Method: (§1) Seeds of a variety of test species are sown in standard soil in pots:— Amaranthus retoflexus (AMARE), Setaria faberi (SETFA), Echinochloa crus-galli (ECHCG), Ipomoea hederacea (IPOHE), Zea Mays (ZEAMX), Abutilon theophrasti (ABUTH). After 8 days cultivation (post-emergence) under controlled conditions in a glasshouse (at 24/16° C., day/night; 14 hours light; 65% humidity), the plants are sprayed with an aqueous spray solution derived from the formulation of the technical active ingredient in acetone/water (50:50) solution containing 0.5% Tween 20 (polyoxyethylene sorbitan monolaurate, CAS RN 9005-64-5). Compounds are applied at 250 g/ha. The test plants are then grown in a glasshouse under controlled conditions in a glasshouse (at 24/16° C., day/night; 14 hours light; 65% humidity) and watered twice daily. After 13 days, the test is evaluated for the percentage damage caused to the plant. The biological activities are assessed on a five point scale (5=80-100%; 4=60-79%; 3=40-59%; 2=20-39%; 1=0-19%). A blank value in the table is indicative that the compound was not tested on that species.

[2] = tested on: Amaranthus retoflexus (AMARE); assay: B2 Post-Emergence Efficacy Test 2
Method: as §1

[3] = tested on: Echinochloa crus-galli (ECHCG); assay: B2 Post-Emergence Efficacy Test 2
Method: as §1

[4] = tested on: Ipomoea hederacea (IPOHE); assay: B2 Post-Emergence Efficacy Test 2
Method: as §1

Setaria faberi (SETFA) [5] = assay: B2 Post-Emergence Efficacy Test 2
Method: as §1

Zea Mays (ZEAMX) [6] = assay: B2 Post-Emergence Efficacy Test 2
Method: as §1

[7] = tested on: Abutilon theophrasti (ABUTH); assay: B4 Pre-Emergence Efficacy Test 2
Method: (§2) Seeds of a variety of test species were sown in standard soil in pots: Amaranthus retoflexus (AMARE), Setaria faberi (SETFA), Echinochloa crus-galli (ECHCG), Ipomoea hederacea (IPOHE), Zea Mays (ZEAMX), Abutilon theophrasti (ABUTH). After cultivation for one day (pre-emergence) under controlled conditions in a glasshouse (at 24/16° C., day/night; 14 hours light; 65% humidity), the plants were sprayed with an aqueous spray solution derived from the formulation of the technical active ingredient in acetone/water (50:50) solution containing 0.5% Tween 20 (polyoxyethelyene sorbitan monolaurate, CAS RN 9005-64-5). Compounds are applied at 250 g/ha. The test plants were then grown in a glasshouse under controlled conditions (at 24/16° C., day/night; 14 hours light; 65% humidity) and watered twice daily. After 13 days, the test is evaluated for the percentage damage caused to the plant. The biological activities are assessed on a five point scale (5=80-100%; 4=60-79%; 3=40-59%; 2=20-39%; 1=0-19%). A blank value in the table is indicative that the compound was not tested on that species.

[8] = tested on: Amaranthus retoflexus (AMARE); assay: B4 Pre-Emergence Efficacy Test 2
Method: as §2

[9] = tested on: Echinochloa crus-galli (ECHCG); assay: B4 Pre-Emergence Efficacy Test 2
Method: as §2

[10] = tested on: Ipomoea hederacea (IPOHE); assay: B4 Pre-Emergence Efficacy Test 2
Method: as §2

Setaria faberi (SETFA) [11] = assay: B4 Pre-Emergence Efficacy Test 2
Method: as §2

Zea Mays (ZEAMX) [12] = assay: B4 Pre-Emergence Efficacy Test 2
Method: as §2

Cc1nn(C)c(=O)c(-c2c(F)ccc(Cl)c2CCc2ccc3c(C)noc3c2)c1O [Compound 1.351]
percentage damage caused to the plant, five point scale, ABUTH [1]: 5 (5=80-100%)
percentage damage caused to the plant, five point scale, AMARE [2]: 5 (5=80-100%)
percentage damage caused to the plant, five point scale, ECHCG [3]: 4 (4=60-79%)
percentage damage caused to the plant, five point scale, IPOHE [4]: 5 (5=80-100%)
percentage damage caused to the plant, five point scale, SETFA (Setaria faberi (SETFA) [5]): 4 (4=60-79%)
percentage damage caused to the plant, five point scale, ZEAMX (Zea Mays (ZEAMX) [6]): 5 (5=80-100%)
percentage damage caused to the plant, five point scale, ABUTH [7]: 5 (5=80-100%)
percentage damage caused to the plant, five point scale, AMARE [8]: 5 (5=80-100%)
percentage damage caused to the plant, five point scale, ECHCG [9]: 5 (5=80-100%)
percentage damage caused to the plant, five point scale, IPOHE [10]: 5 (5=80-100%)
percentage damage caused to the plant, five point scale, SETFA (Setaria faberi (SETFA) [11]): 5 (5=80-100%)
percentage damage caused to the plant, five point scale, ZEAMX (Zea Mays (ZEAMX) [12]): 5 (5=80-100%)

Cc1nn(C)c(=O)c(-c2c(F)ccc(Cl)c2CCc2ccc3oc(=O)[nH]c3c2)c1O [Compound 1.352]
percentage damage caused to the plant, five point scale, ABUTH [1]: 4 (4=60-79%)
percentage damage caused to the plant, five point scale, AMARE [2]: 4 (4=60-79%)
percentage damage caused to the plant, five point scale, ECHCG [3]: 4 (4=60-79%)
percentage damage caused to the plant, five point scale, IPOHE [4]: 3 (3=40-59%)
percentage damage caused to the plant, five point scale, SETFA (Setaria faberi (SETFA) [5]): 4 (4=60-79%)
percentage damage caused to the plant, five point scale, ZEAMX (Zea Mays (ZEAMX) [6]): 3 (3=40-59%)
percentage damage caused to the plant, five point scale, ABUTH [7]: 4 (4=60-79%)
percentage damage caused to the plant, five point scale, AMARE [8]: 5 (5=80-100%)
percentage damage caused to the plant, five point scale, ECHCG [9]: 3 (3=40-59%)
percentage damage caused to the plant, five point scale, IPOHE [10]: 3 (3=40-59%)
percentage damage caused to the plant, five point scale, SETFA (Setaria faberi (SETFA) [11]): 5 (5=80-100%)
percentage damage caused to the plant, five point scale, ZEAMX (Zea Mays (ZEAMX) [12]): 4 (4=60-79%)

Cc1nn(C)c(=O)c(-c2c(F)ccc(Cl)c2CCc2ccc3cnn(C)c3c2)c1O [Compound 1.353]
percentage damage caused to the plant, five point scale, ABUTH [1]: 4 (4=60-79%)
percentage damage caused to the plant, five point scale, AMARE [2]: 4 (4=60-79%)
percentage damage caused to the plant, five point scale, ECHCG [3]: 4 (4=60-79%)
percentage damage caused to the plant, five point scale, IPOHE [4]: 3 (3=40-59%)
percentage damage caused to the plant, five point scale, SETFA (Setaria faberi (SETFA) [5]): 4 (4=60-79%)
percentage damage caused to the plant, five point scale, ZEAMX (Zea Mays (ZEAMX) [6]): 3 (3=40-59%)
percentage damage caused to the plant, five point scale, ABUTH [7]: 4 (4=60-79%)
percentage damage caused to the plant, five point scale, AMARE [8]: 5 (5=80-100%)
percentage damage caused to the plant, five point scale, ECHCG [9]: 5 (5=80-100%)
percentage damage caused to the plant, five point scale, IPOHE [10]: 5 (5=80-100%)
percentage damage caused to the plant, five point scale, SETFA (Setaria faberi (SETFA) [11]): 5 (5=80-100%)
percentage damage caused to the plant, five point scale, ZEAMX (Zea Mays (ZEAMX) [12]): 4 (4=60-79%)

Cc1nn(C)c(=O)c(-c2c(F)ccc(Cl)c2CCc2ccc3c(cnn3C)c2)c1O [Compound 1.354]
percentage damage caused to the plant, five point scale, ABUTH [1]: 4 (4=60-79%)
percentage damage caused to the plant, five point scale, AMARE [2]: 4 (4=60-79%)
percentage damage caused to the plant, five point scale, ECHCG [3]: 5 (5=80-100%)
percentage damage caused to the plant, five point scale, IPOHE [4]: 4 (4=60-79%)
percentage damage caused to the plant, five point scale, SETFA (Setaria faberi (SETFA) [5]): 4 (4=60-79%)
percentage damage caused to the plant, five point scale, ZEAMX (Zea Mays (ZEAMX) [6]): 4 (4=60-79%)
percentage damage caused to the plant, five point scale, ABUTH [7]: 4 (4=60-79%)
percentage damage caused to the plant, five point scale, AMARE [8]: 4 (4=60-79%)
percentage damage caused to the plant, five point scale, ECHCG [9]: 5 (5=80-100%)
percentage damage caused to the plant, five point scale, IPOHE [10]: 5 (5=80-100%)
percentage damage caused to the plant, five point scale, SETFA (Setaria faberi (SETFA) [11]): 5 (5=80-100%)
percentage damage caused to the plant, five point scale, ZEAMX (Zea Mays (ZEAMX) [12]): 4 (4=60-79%)

Cc1nn(C)c(=O)c(-c2c(F)ccc(Cl)c2CCc2ccc3ccn(C)c3c2)c1O [Compound 1.355]
percentage damage caused to the plant, five point scale, ABUTH [1]: 3 (3=40-59%)
percentage damage caused to the plant, five point scale, AMARE [2]: 4 (4=60-79%)
percentage damage caused to the plant, five point scale, ECHCG [3]: 1 (1=0-19%)
percentage damage caused to the plant, five point scale, IPOHE [4]: 4 (4=60-79%)
percentage damage caused to the plant, five point scale, SETFA (Setaria faberi (SETFA) [5]): 2 (2=20-39%)
percentage damage caused to the plant, five point scale, ZEAMX (Zea Mays (ZEAMX) [6]): 1 (1=0-19%)
percentage damage caused to the plant, five point scale, ABUTH [7]: 0
percentage damage caused to the plant, five point scale, AMARE [8]: 3 (3=40-59%)
percentage damage caused to the plant, five point scale, ECHCG [9]: 0
percentage damage caused to the plant, five point scale, IPOHE [10]: 2 (2=20-39%)
percentage damage caused to the plant, five point scale, SETFA (Setaria faberi (SETFA) [11]): 1 (1=0-19%)
percentage damage caused to the plant, five point scale, ZEAMX (Zea Mays (ZEAMX) [12]): 1 (1=0-19%)

Cc1nn(C)c(=O)c(-c2c(F)ccc(Cl)c2CCc2ccc3c(ccn3C)c2)c1O [Compound 1.356]
percentage damage caused to the plant, five point scale, ABUTH [1]: 4 (4=60-79%)
percentage damage caused to the plant, five point scale, AMARE [2]: 5 (5=80-100%)
percentage damage caused to the plant, five point scale, ECHCG [3]: 4 (4=60-79%)
percentage damage caused to the plant, five point scale, IPOHE [4]: 4 (4=60-79%)
percentage damage caused to the plant, five point scale, SETFA (Setaria faberi (SETFA) [5]): 5 (5=80-100%)
percentage damage caused to the plant, five point scale, ZEAMX (Zea Mays (ZEAMX) [6]): 2 (2=20-39%)
percentage damage caused to the plant, five point scale, ABUTH [7]: 1 (1=0-19%)
percentage damage caused to the plant, five point scale, AMARE [8]: 3 (3=40-59%)
percentage damage caused to the plant, five point scale, ECHCG [9]: 1 (1=0-19%)
percentage damage caused to the plant, five point scale, IPOHE [10]: 2 (2=20-39%)
percentage damage caused to the plant, five point scale, SETFA (Setaria faberi (SETFA) [11]): 1 (1=0-19%)
percentage damage caused to the plant, five point scale, ZEAMX (Zea Mays (ZEAMX) [12]): 0

Cc1nn(C)c(=O)c(-c2c(F)ccc(Cl)c2CCc2nc3ccccc3o2)c1O [Compound 1.359]
percentage damage caused to the plant, five point scale, ABUTH [1]: 4 (4=60-79%)
percentage damage caused to the plant, five point scale, AMARE [2]: 3 (3=40-59%)
percentage damage caused to the plant, five point scale, ECHCG [3]: 3 (3=40-59%)
percentage damage caused to the plant, five point scale, IPOHE [4]: 2 (2=20-39%)
percentage damage caused to the plant, five point scale, SETFA (Setaria faberi (SETFA) [5]): 3 (3=40-59%)
percentage damage caused to the plant, five point scale, ZEAMX (Zea Mays (ZEAMX) [6]): 1 (1=0-19%)
percentage damage caused to the plant, five point scale, ABUTH [7]: 5 (5=80-100%)
percentage damage caused to the plant, five point scale, AMARE [8]: 5 (5=80-100%)
percentage damage caused to the plant, five point scale, ECHCG [9]: 5 (5=80-100%)
percentage damage caused to the plant, five point scale, IPOHE [10]: 4 (4=60-79%)
percentage damage caused to the plant, five point scale, SETFA (Setaria faberi (SETFA) [11]): 5 (5=80-100%)
percentage damage caused to the plant, five point scale, ZEAMX (Zea Mays (ZEAMX) [12]): 3 (3=40-59%)

Cc1nn(C)c(=O)c(-c2c(F)ccc(Cl)c2CCc2ccc3c(c2)OC(C)(C)O3)c1O [Compound 1.361, [3-chloro-2-[2-(2,2-dimethyl-1,3-benzodioxol-5-yl)ethyl]-6-fluoro-phenyl]-5-hydroxy-2,6-dimethyl-pyridazin-3-one]
percentage damage caused to the plant, five point scale, ABUTH [1]: 5 (5=80-100%)
percentage damage caused to the plant, five point scale, AMARE [2]: 3 (3=40-59%)
percentage damage caused to the plant, five point scale, ECHCG [3]: 4 (4=60-79%)
percentage damage caused to the plant, five point scale, IPOHE [4]: 5 (5=80-100%)
percentage damage caused to the plant, five point scale, SETFA (Setaria faberi (SETFA) [5]): 5 (5=80-100%)
percentage damage caused to the plant, five point scale, ZEAMX (Zea Mays (ZEAMX) [6]): 4 (4=60-79%)
percentage damage caused to the plant, five point scale, ABUTH [7]: 5 (5=80-100%)
percentage damage caused to the plant, five point scale, AMARE [8]: 4 (4=60-79%)
percentage damage caused to the plant, five point scale, ECHCG [9]: 3 (3=40-59%)
percentage damage caused to the plant, five point scale, IPOHE [10]: 4 (4=60-79%)
percentage damage caused to the plant, five point scale, SETFA (Setaria faberi (SETFA) [11]): 5 (5=80-100%)
percentage damage caused to the plant, five point scale, ZEAMX (Zea Mays (ZEAMX) [12]): 1 (1=0-19%)
